Laboratory results: patent US8445522B2, “Substituted 2-(4-pyridyl)benzoxazoles, and compositions thereof, for use in arthropod pest control” (Sumitomo Chemical Company, Limited, priority 2009, dated 2013)

What was measured:
Type in all cases: in vivo
tobacco whitefly = experiment: Test Example 4: test diluent scattered on tomato seedling with hatched tobacco whitefly larvae; details: 168 h; 500 ppm, 10 ml/cup scattered on tomato seedling at larvae stage, counted after seven days at 25° C.; read-out: Control value
Experimental: The formulations were diluted with water so that the concentration of the active ingredient became 500 ppm and thus test diluents were prepared. On the other hand, by releasing tobacco whitefly imagos to a tomato seedling planted in a plastic cup to allow them to lay eggs for about 24 hours. The tomato seedling was kept in a green house for eight days. At the stage in which larvae hatched from the laid eggs, any of the test diluents was scattered at the rate of 10 ml/cup. The tomato seedling was kept in the greenhouse at 25° C. for seven days. The number of survived larvae on tomato leaves was counted, and the control value was calculated by the following equation. Control value(%)={1−(Cb×Tai)/(Cai×Tb)}×100 wherein each character represents the following meaning: Cb: number of insects in non-treated section before treatment Cai: number of insects in non-treated section during observation Tb: number of insects in treated section before treatment Tai: number of insects in treated section during observation

[1] = system: cotton aphids (Aphis gossypii Glover); experiment: Test Example 1: test diluent scattered on cucumber seedling inoculated with cotton aphids; details: 120 h, 500 ppm active ingredient, 10 ml scattered on cucumber seedling, counted five days after scattering, read-out: Control value
Experimental: The formulations were diluted with water so that the concentration of the active ingredient became 500 ppm and thus test diluents were prepared. On the other hand, a cucumber seedling (second true leaf development stage) planted in a plastic cup was inoculated with about 30 cotton aphids (Aphis gossypii Glover) and allowed to stand for one day. To the seedling, any one of the diluents (10 ml) was scattered. Five days after the scattering, the number of survived cotton aphids parasitic on the cucumber leaves was counted, and the control value was calculated by the following equation. Control value(%)={1−(Cb×Tai)/(Cai×Tb)}×100 wherein each character represents the following meaning: Cb: the number of insects in non-treated section before treatment Cai: the number of insects in non-treated section during observation Tb: the number of insects in treated section before treatment Tai: the number of insects in treated section during observation

cotton aphids = experiment: Test Example 2: plant foot irrigation of cucumber seedling in urethane mat, cotton aphids inoculated one day after treatment; details: 168 h; 500 ppm, 5 ml plant foot irrigation, urethane mat; aphids inoculated one day after treatment, counted seven days after; read-out: Control value
Experimental: The formulations were diluted with water so that the concentration of the active ingredient became 500 ppm and thus test diluents were prepared. On the other hand, a plant foot of cucumber seedling (second true leaf development stage) planted in a urethane mat was irrigated with any one of diluents (5 ml). One day after the treatment, the cucumber leaves were inoculated with 30 cotton aphids (all stages). Further seven days after, the number of survived cotton aphids parasitic on the cucumber leaves was counted, and the control value was calculated by the following equation. Control value(%)={1−(Cb×Tai)/(Cai×Tb)}×100 wherein each character represents the following meaning: Cb: number of insects in non-treated section before treatment Cai: number of insects in non-treated section during observation Tb: number of insects in treated section before treatment Tai: number of insects in treated section during observation

rice brown planthopper = experiment: Test Example 6: plant foot irrigation of rice plant seedling, rice brown planthopper released after seven days; details: Nilaparvata lugens, 144 h; 500 ppm, 5 ml plant foot irrigation of rice seedling; first-instars released after seven days, counted six days after; read-out: Control value
Experimental: The formulations were diluted with water so that the concentration of the active ingredient became 500 ppm and thus test diluents were prepared. On the other hand, a plant foot of rice plant seedling (two weeks after seeding, second leaf development stage) planted in a plastic cup was irrigated with any one of diluents (5 ml). The seedling was kept in a green house of 25° C. for seven days. Thirty first-instars of rice brown planthopper were released to the seedling, which was kept in the green house at 25 C for six days. Thereafter, the number of survived rice brown planthopper parasitic on rice plant leaves was counted, and the control value was calculated by the following equation. Control value(%)={1−(Cb×Tai)/(Cai×Tb)}×100 wherein each character represents the following meaning: Cb: number of insects in non-treated section before treatment Cai: number of insects in non-treated section during observation Tb: number of insects in treated section before treatment Tai: number of insects in treated section during observation

Row | SMILES | pest or weed control at 500 ppm (tobacco whitefly) [%] | pest or weed control at 500 ppm [1] [%] | pest or weed control at 500 ppm (cotton aphids) [%] | pest or weed control at 500 ppm (rice brown planthopper) [%]
1 | FC(F)(F)c1ccc2nc(-c3ccncc3)oc2n1 [Active Compound 153, 2-(pyridin-4-yl)-5-(trifluoromethyl)oxazolo[5,4-b]pyridine] | ≥ 90 | – | – | –
2 | FC(F)(F)c1ccc2nc(-c3ccncc3Cl)oc2n1 [Active Compound 154, 2-(3-chloropyridin-4-yl)-5-(trifluoromethyl)oxazolo[5,4-b]pyridine] | ≥ 90 | – | – | –
3 | CCc1ccc2oc(-c3ccncc3)nc2c1 [active compound 3, 5-ethyl-2-(pyridin-4-yl)-benzoxazole] | ≥ 90 | – | – | –
4 | CC(C)c1ccc2oc(-c3ccncc3)nc2c1 [active compound 5, 5-isopropyl-2-(pyridin-4-yl)-benzoxazole] | ≥ 90 | ≥ 90 | – | –
5 | CC(C)(C)c1ccc2oc(-c3ccncc3)nc2c1 [active compound 6, 5-tert-butyl-2-(pyridin-4-yl)-benzoxazole] | ≥ 90 | ≥ 90 | – | –
6 | FC(F)(F)c1ccc2oc(-c3ccncc3I)nc2c1 [active compound 29, 2-(3-iodopyridin-4-yl)-5-(trifluoromethyl)benzoxazole] | – | – | ≥ 90 | –
7 | FC(F)(F)COc1cnccc1-c1nc2cc(C(F)(F)F)ccc2o1 [active compound 39, 2-[3-(2,2,2-trifluoroethyl)oxypyridin-4-yl]-5-(trifluoromethyl)benzoxazole] | – | – | – | ≥ 90
8 | CCSc1cnccc1-c1nc2cc(C(F)(F)F)ccc2o1 [active compound 41, 2-(3-ethylthiopyridin-4-yl)-5-(trifluoromethyl)benzoxazole] | – | – | – | ≥ 90
9 | Nc1cnccc1-c1nc2cc(C(F)(F)F)ccc2o1 [active compound 52, 2-(3-aminopyridin-4-yl)-5-(trifluoromethyl)benzoxazole] | ≥ 90 | – | – | –
10 | FC(F)(F)c1ccc2oc(-c3ccncc3N3CCCC3)nc2c1 [active compound 53, 2-[3-(pyrrolidine-1-yl)pyridin-4-yl]-5-(trifluoromethyl)benzoxazole] | ≥ 90 | – | – | –
11 | FC(F)(F)c1ccc2oc(-c3ccncc3N3CCOCC3)nc2c1 [active compound 55, 2-[3-(morpholin-4-yl)pyridin-4-yl]-5-(trifluoromethyl)benzoxazole] | – | – | ≥ 90 | –
12 | FC(F)(F)c1ccc2oc(-c3ccncc3-n3ccnc3)nc2c1 [active compound 56, 2-[3-(imidazole-1-yl)pyridin-4-yl]-5-(trifluoromethyl)benzoxazole] | – | – | ≥ 90 | –
13 | FC(F)(F)c1ccc2oc(-c3ccncc3OCC(F)(F)C(F)(F)F)nc2c1 [active compound 75, 2-[3-(2,2,3,3,3-pentafluoropropoxy)pyridin-4-yl]-5-(trifluoromethyl)benzoxazole] | – | – | – | ≥ 90
14 | FC(F)(F)Sc1ccc2oc(-c3ccncc3)nc2c1 [active compound 76, 2-(pyridin-4-yl)-5-(trifluoromethylthio)benzoxazole] | – | – | ≥ 90 | –
15 | FC(F)(F)COc1cnccc1-c1nc2cc(C(F)(F)F)c(Cl)cc2o1 [active compound 92, 6-chloro-2-[3-(2,2,2-trifluoroethoxy)pyridin-4-yl]-5-(trifluoromethyl)benzoxazole] | – | – | – | ≥ 90
16 | CCc1cnccc1-c1nc2cc(C(F)(F)F)c(Cl)cc2o1 [active compound 93, 6-chloro-2-(3-ethylpyridin-4-yl)-5-(trifluoromethyl)benzoxazole] | – | – | ≥ 90 | ≥ 90
17 | Fc1cc2oc(-c3ccncc3Cl)nc2cc1C(F)(F)F [active compound 94] | – | – | ≥ 90 | –
18 | COc1cnccc1-c1nc2cc(C(C)(C)C)ccc2o1 [active compound 100, 5-tert-butyl-2-(3-methoxypyridin-4-yl)benzoxazole] | ≥ 90 | ≥ 90 | – | ≥ 90
19 | CC(C)(C)c1ccc2oc(-c3ccncc3OCC(F)(F)F)nc2c1 [active compound 101, 5-tert-butyl-2-[3-(2,2,2-trifluoroethoxy)pyridin-4-yl]benzoxazole] | ≥ 90 | ≥ 90 | – | ≥ 90
20 | CC(C)Oc1cnccc1-c1nc2cc(C(C)(C)C)ccc2o1 [active compound 104, 5-tert-butyl-2-(3-isopropoxypyridin-4-yl)benzoxazole] | ≥ 90 | ≥ 90 | – | –
21 | CCc1cnccc1-c1nc2cc(C(C)(C)C)ccc2o1 [active compound 105, 5-tert-butyl-2-(3-ethylpyridin-4-yl)benzoxazole] | ≥ 90 | ≥ 90 | – | –
22 | FC(F)COc1cnccc1-c1nc2cc(C(F)(F)F)ccc2o1 [active compound 110, 2-[3-(2,2-difluoroethoxy)pyridin-4-yl]-5-(trifluoromethyl)benzoxazole] | ≥ 90 | ≥ 90 | ≥ 90 | ≥ 90
23 | CC(Oc1cnccc1-c1nc2cc(C(F)(F)F)ccc2o1)C(F)(F)F (centres unmarked) [active compound 111, 2-[3-(1-methyl-2,2,2-trifluoroethoxy)pyridin-4-yl]-5-(trifluoromethyl)benzoxazole] | ≥ 90 | ≥ 90 | – | ≥ 90
24 | FC(F)(F)c1ccc2oc(-c3ccncc3OC3CCCC3)nc2c1 [active compound 115, 2-(3-cyclopentyloxypyridin-4-yl)-5-(trifluoromethyl)benzoxazole] | – | ≥ 90 | – | –
25 | CC(C)COc1cnccc1-c1nc2cc(C(F)(F)F)ccc2o1 [active compound 116, 2-(3-isobutoxypyridin-4-yl)-5-(trifluoromethyl)benzoxazole] | – | ≥ 90 | – | –
26 | CCC(C)Oc1cnccc1-c1nc2cc(C(F)(F)F)ccc2o1 (centres unmarked) [active compound 119, 2-(3-sec-butoxypyridin-4-yl)-5-(trifluoromethyl)benzoxazole] | – | – | ≥ 90 | –
27 | COCCOc1cnccc1-c1nc2cc(C(F)(F)F)ccc2o1 [active compound 120, 2-[3-(2-methoxyethoxy)pyridin-4-yl]-5-(trifluoromethyl)benzoxazole] | – | – | ≥ 90 | –
28 | FC(F)Oc1cnccc1-c1nc2cc(C(F)(F)F)ccc2o1 [active compound 126, 2-(3-difluoromethoxypyridin-4-yl)-5-(trifluoromethyl)benzoxazole] | ≥ 90 | ≥ 90 | ≥ 90 | ≥ 90
29 | FC(F)(F)c1ccc2oc(-c3ccncc3-c3cccnc3)nc2c1 [active compound 128, 4-(5-trifluoromethyl-benzoxazole-2-yl)-[3,3′]bipyridinyl] | – | – | ≥ 90 | –
30 | CN(C)c1cnccc1-c1nc2cc(C(F)(F)F)ccc2o1 [active compound 131, dimethyl-{4-[5-(trifluoromethyl)benzoxazole-2-yl]pyridin-3-yl}amine] | – | – | ≥ 90 | –
